Results: the pKa sets of Baltruschat and Czodrowski (2020)

Settings: acidic group

SMILES | pKa
CCCc1cc(Cl)cc(Cl)c1O | 8.1
C[NH+](C)CC[SeH] | 4.74
Cc1cc(O)n(C2CC[NH+](C)CC2)n1 | 6.63
Cc1ccc(C(=O)O)cc1Cl | 4.06
C/C=C/CCC(=O)O | 4.72
Cc1cc(O)[nH+]c(O)[nH+]1 | 1.2
CSc1cccc(O)c1 | 9.47
Cc1c[nH]c(C(=O)O)c1 | 4.6
CC(C)(C)c1ccc(SCC(=O)O)cc1 | 3.76
O=P([O-])(O)C([NH2+]Cc1ccccn1)c1ccccc1O (configuration not stated) | 5.15
O=C(O)c1ccc(Br)c([N+](=O)[O-])c1 | 3.24
CNc1cc[n+](O)cc1 | 3.85
Cc1cc(C(C)(C)C)cc(C)c1C(=O)O | 3.44
O=[N+]([O-])c1cc(-c2ccccc2)ccc1O | 6.73
CCCCC1(CC)C(=O)[N-]C(=S)NC1=O | 12.1
COc1cccc(OC)c1-c1nc2ncccc2[nH]1 | 11.3
NC(=O)[C@@H](N)CSSC[C@H](N)C(N)=O | 6.41
COc1cccc(=O)c(O)c1 | 7.24
Cc1ccc(C(=O)C[n+]2cccc3c4ccccc4ccc32)cc1 | 11.7
CN(C)c1cccc2c(S(=O)(=O)NCC(=O)[O-])cccc12 | 11.7
CN(C)c1ncnc2nc[nH]c12 | 10.5

SMILES | pKa
O=C(c1ccccc1)c1ccccc1O | 9.3
Cc1n[nH]c(C(=O)O)c1[N+](=O)[O-] | 2.26
O=S(=O)(Nc1ccccc1)c1ccc(Cl)cc1 | 7.98
C[N+](C)(C)CCc1ccccc1O | 9.57
O=[N+]([O-])CCO | 9.4
Cc1cc(C)nc(NS(=O)(=O)c2ccc(O)cc2)n1 | 7.52
CNC(=O)/C=C(/C)C(=O)O | 3.23
Cc1cccc(C(=O)O)c1C | 3.73
O=CC1CCCC1=O (configuration not stated) | 5.83
CN(C)c1cccc(/C(=N\O)C(F)(F)F)c1 | 9.3
Cc1ccc(O)cc1Cc1cc([N+](=O)[O-])ccc1[O-] | 10.3
C[C@@H]1C[C@@H]([C@H](O)CC2CC(=O)NC(=O)C2)C(=O)[C@@H](C)C1 | 11.2
COc1cc(C(N)=O)ccc1-c1nc2c(ncn2C)[nH]1 | 11.7
CCOC(=O)COc1ccc(Cc2ccc(O)c(C[NH3+])c2)c(Cl)c1Cl | 8.73
Cc1c([N+](=O)[O-])cc(Cl)c2nnn(O)c12 | 3.17
O[n+]1c2ccccc2cc2ccccc21 | 1.37
COc1ccc(O)cc1Br | 9.09
COc1ccc(C)c(C(=O)O)c1 | 3.84
[O-]c1ccc2ccccc2[n+]1O | 6.88
C[n+]1cccc2ccc(O)cc21 | 5.56
N#CC(C#N)C(c1ccccc1)C(C#N)C#N | 6.19

SMILES | pKa
O=[N+]([O-])c1cccc(/C=N\O)c1 | 10.7
COc1ccc(NC(=S)c2ccc(OC)cc2)cc1 | 11.8
O=S(=O)(Nc1cccc(C(F)(F)F)c1)C(F)(F)F | 3.5
Cn1c(C(=O)O)cc(=O)n(C)c1=O | 0.8
CN(O)C(=O)C(C)(C)C | 9.94
O=C(O)C(=O)/C=C/c1ccccc1 | 1.97
OC[C@@H]1O[C@@H]2NC(=S)O[C@@H]2[C@H]1O | 9.48
Nc1nc(N)nc([S-])n1 | 10.2
Oc1c(Br)cccc1Br | 6.6
Oc1ccc2cccc(Cl)c2c1 | 8.69
C[Si](C)(C)CC(=O)O | 5.22
CC[NH+](CC)CC(=N\O)/C(C)=N/O | 8.5
O=C(O)CCc1ccc(Cl)cc1 | 4.65
O=C(O)[C@@H]1CCCN1C(=O)[C@@H]1CCC[NH2+]1 | 3.16
Cn1cnc2cc(O)ccc21 | 9.85
O=C1C(O)=C(/C=C/c2ccccc2)C(=O)c2ccccc21 | 4.44
C/C(O)=C/C(=O)[O-] | 13.2
O=C(O)c1cccc[nH+]1 | 1.25
O=S(=O)(Cc1ccccc1)c1ncc[nH]1 | 8.67
CCCCNC(O)=S | 0.67
Cn1cnc2c(N=O)c(O)ccc21 | 6.76

SMILES | pKa
CC(C)C([NH3+])C(=O)O (configuration not stated) | 2.41
Cc1cc(Nc2ccc([O-])cc2)c(C(C)C)cc1O | 10.7
Clc1ccccc1-c1nnn[nH]1 | 3.69
CC(C)C(=O)CC(=O)C(C)C | 9.86
O=C(O)C1(C(=O)O)CCCC1 | 3.24
Cc1cc(O)cc(C)c1C#N | 8.21
[S-]c1ncnc2nc[nH]c12 | 10.9
O=C(O)c1ccc(=O)oc1 | 3.26
COc1nc2ncncc2[nH]1 | 7.73
COC(=O)C1=C(C(=O)OC)CC=C1 | 5
O=C(O)Cc1cccc2ccccc12 | 4.24
CN(C)Cc1cc(OCc2ccccc2)ccc1O | 11.5
Cc1ncc(C(=O)O)s1 | 3.26
Sc1nc2cc3ccccc3cc2[nH]1 | 9.84
C/C(=C(/S)CCO)N(C=O)Cc1cnc(C)nc1N | 11.4
CC(=O)c1ccccc1NN=C1C(=O)CC(C)(C)CC1=O | 10.5
CCCCCCC(=O)NO | 9.62
Cn1c(CCl)nc2c(O)ccc(O)c21 | 8.4
OB1OCc2ccccc21 | 7.38

Same assay, conditions: basic group

SMILES | pKa
OCCN1CC[NH+](CCCN2c3ccccc3Sc3ccc(Cl)cc32)CC1 | 3.59
Cc1cnc2c(ccc3cc(C)cnc32)c1 | 5.23
Clc1cnc2c(ccc3cccnc32)c1 | 3.99
C=CCc1c(O)n[nH]c1C | 2.8
C[C@H](CCCN)[C@H]1CC[C@H]2[C@@H]3CC[C@@H]4C[C@H](O)CC[C@]4(C)[C@H]3CC[C@]12C | 9.7
